In paper PMC6522912, “Evaluation of the published kinase inhibitor set to identify multiple inhibitors of bacterial ATP-dependent mur ligases” (Journal of Enzyme Inhibition and Medicinal Chemistry, 2019):
Where two headings read alike, the source gives them in different places.

Experiments:
E. coli MurF = E. coli MurF (Escherichia coli, UniProt P11880); experiment: biochemical; conditions: Table S1, PKIS screening; for remaining activity at 100 µM: 0.25 h, read-out: RA [%] at 100 µM MurF
E. coli MurC = E. coli MurC (Escherichia coli, UniProt P17952); experiment: Malachite green inhibition assay, MurC; type: biochemical; conditions: for remaining activity at 100 µM: 0.25 h
E. coli MurD = E. coli MurD (Escherichia coli, UniProt P14900); experiment: biochemical; conditions: for remaining activity at 100 µM: 0.25 h, Table S1, PKIS screening, read-out: RA [%] at 100 µM MurD
In short: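 Reaction 15 min at 37 °C, then phosphate detected with Biomol green at 650 nm. Values are residual activity versus 5% DMSO carrier controls.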

[1] = Table S1, PKIS screening, read-out: RA [%] at 100 µM MurC
[2] = read-out: RA [%] at 100 µM MurC, Table S1, PKIS screening

Chain of E. coli MurF (P11880 whole entry): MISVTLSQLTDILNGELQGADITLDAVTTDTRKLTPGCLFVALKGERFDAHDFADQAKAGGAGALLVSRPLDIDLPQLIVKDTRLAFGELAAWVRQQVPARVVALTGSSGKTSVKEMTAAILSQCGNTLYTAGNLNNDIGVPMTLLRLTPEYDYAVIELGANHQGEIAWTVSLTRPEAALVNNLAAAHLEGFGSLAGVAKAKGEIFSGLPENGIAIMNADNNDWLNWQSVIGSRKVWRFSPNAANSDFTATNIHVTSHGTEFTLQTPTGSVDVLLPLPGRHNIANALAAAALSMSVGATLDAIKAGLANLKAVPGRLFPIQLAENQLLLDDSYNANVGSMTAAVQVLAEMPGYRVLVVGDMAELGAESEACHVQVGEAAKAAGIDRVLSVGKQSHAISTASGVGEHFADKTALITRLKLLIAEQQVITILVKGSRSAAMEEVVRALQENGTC
Chain of E. coli MurD (P14900 whole entry): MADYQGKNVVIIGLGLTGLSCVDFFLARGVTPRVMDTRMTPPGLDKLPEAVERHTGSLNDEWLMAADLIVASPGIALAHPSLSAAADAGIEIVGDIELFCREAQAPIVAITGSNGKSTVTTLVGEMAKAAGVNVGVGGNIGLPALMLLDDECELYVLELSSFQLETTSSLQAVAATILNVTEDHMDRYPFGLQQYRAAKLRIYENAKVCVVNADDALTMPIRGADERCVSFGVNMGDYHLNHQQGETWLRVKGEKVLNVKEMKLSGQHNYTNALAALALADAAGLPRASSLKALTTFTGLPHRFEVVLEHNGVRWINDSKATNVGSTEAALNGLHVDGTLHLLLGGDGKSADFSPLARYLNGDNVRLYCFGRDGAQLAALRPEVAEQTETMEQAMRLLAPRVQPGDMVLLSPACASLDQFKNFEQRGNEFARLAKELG
Chain of E. coli MurC (P17952 whole entry): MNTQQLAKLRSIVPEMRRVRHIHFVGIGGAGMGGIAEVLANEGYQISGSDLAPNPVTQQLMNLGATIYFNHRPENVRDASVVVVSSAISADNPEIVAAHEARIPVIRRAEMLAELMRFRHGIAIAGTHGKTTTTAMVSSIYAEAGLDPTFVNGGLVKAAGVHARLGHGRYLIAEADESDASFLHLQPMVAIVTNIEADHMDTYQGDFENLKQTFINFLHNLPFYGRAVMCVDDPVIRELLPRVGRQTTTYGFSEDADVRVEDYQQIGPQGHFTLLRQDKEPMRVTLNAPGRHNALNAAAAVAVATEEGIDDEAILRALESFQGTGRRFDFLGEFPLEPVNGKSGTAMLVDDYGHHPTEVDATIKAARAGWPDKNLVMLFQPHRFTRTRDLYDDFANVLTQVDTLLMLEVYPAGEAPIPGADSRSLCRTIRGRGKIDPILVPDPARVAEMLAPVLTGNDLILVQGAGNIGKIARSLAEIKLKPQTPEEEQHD

Row | Compound | remaining activity at 100 µM (E. coli MurF) [%] | remaining activity at 100 µM (E. coli MurC; [1]) [%] | remaining activity at 100 µM (E. coli MurD) [%] | RA [%] at 100 µM MurF (E. coli MurF) [%] | RA [%] at 100 µM MurC (E. coli MurC; Table S1, PKIS screening) [%] | RA [%] at 100 µM MurD (E. coli MurD) | remaining activity at 100 µM (E. coli MurC; [2]) [%]
1 | Nc1nccc(-c2c(-c3ccc(F)cc3)ncn2CCCN2CCOCC2)n1 [SB-216385] | 98 | 77 | 96 |  |  |  | 
2 | Nc1nccc(-c2c(-c3ccc(F)cc3)ncn2C2CCNCC2)n1 [SB-220025-A] |  |  |  | 96 | 98 | 99 | 
3 | Nc1nccc(-c2c(-c3ccc(F)cc3)ncn2C2CCNCC2)n1 [SB-220025-R#3] |  |  |  | 100 | 81 | 87 | 
4 | CN1CCC(n2cnc(-c3ccc(F)cc3)c2-c2ccnc(N)n2)CC1 [SB-220455] | 100 |  | 81 |  |  |  | 76
5 | CC1(C)CC(n2cnc(-c3ccc(F)cc3)c2-c2ccnc(N)n2)CC(C)(C)N1 [SB-221466] | 100 | 91 | 93 |  |  |  | 
6 | Nc1nccc(-c2c(-c3ccc(F)cc3)ncn2C2CCC(O)CC2)n1 (stereo not drawn) [SB-223133] | 88 | 64 | 87 |  |  |  | 
7 | CN1CCC(n2cnc(-c3ccc(F)cc3)c2-c2ccnc(NCCO)n2)CC1 [SB-226879] | 68 |  | 98 |  |  |  | 65
8 | CN1CCC(n2cnc(-c3ccc(F)cc3)c2-c2ccnc(Nc3ccccc3)n2)CC1 [SB-236687] | 67 | 79 | 90 |  |  |  | 
9 | Fc1ccc(-c2ncn(C3CCNCC3)c2-c2ccnc(Oc3ccccc3)n2)cc1 [SB-239272] | 75 | 100 | 67 |  |  |  | 
10 | NC(=O)c1ccc(Oc2nccc(-c3c(-c4ccc(F)cc4)ncn3C3CCNCC3)n2)cc1 [SB-242718] | 69 | 39 | 65 |  |  |  | 
11 | CCc1ccc(Oc2nccc(-c3c(-c4ccc(F)cc4)ncn3C3CCNCC3)n2)cc1 [SB-242719] | 80 |  | 87 |  |  |  | 51
12 | Fc1ccc(-c2ncn(C3CCNCC3)c2-c2ccnc(Oc3ccc(Oc4ccccc4)cc3)n2)cc1 [SB-245392] | 41 | 27 | 41 |  |  |  | 
13 | Fc1ccc(-c2ncn(C3CCNCC3)c2-c2ccnc(Oc3ccc4c(c3)OCO4)n2)cc1 [SB-250715] | 85 |  | 65 |  |  |  | 51
14 | Fc1ccc(-c2ncn(C3CCNCC3)c2-c2ccnc(Oc3ccc(F)c(F)c3)n2)cc1 [SB-253228] | 70 | 32 | 40 |  |  |  | 
15 | NC(=O)Cc1ccccc1Oc1nccc(-c2c(-c3ccc(F)cc3)ncn2C2CCNCC2)n1 [SB-264865] | 98 | 66 | 82 |  |  |  | 
16 | O=C1NC(=O)C(N2CCc3ccccc32)=C1c1ccc(Cl)cc1 [SB-333612] | 100 | 100 | 96 |  |  |  | 
17 | N#Cc1c(NC(=O)c2ccc(F)cc2)sc2c1CCCC2 [SB-347804] | 100 | 87 | 78 |  |  |  | 
18 | O=C1NC(=O)C(c2ccc(Cl)cc2)=C1Nc1ccc(Cl)c(C(=O)O)c1 [SB-360741] | 83 | 84 | 86 |  |  |  | 
19 | COc1ccc(C2=C(N3CCc4ccccc43)C(=O)NC2=O)cc1 [SB-361058] | 97 | 100 | 100 |  |  |  | 
20 | O=C1NC(=O)C(c2ccccc2Cl)=C1Nc1cccc(O)c1 [SB-390527] | 88 | 50 | 83 |  |  |  | 
21 | O=C1NC(=O)C(c2cccc(Cl)c2)=C1Nc1ccc(Cl)c(C(=O)O)c1 [SB-409513] | 78 | 94 | 88 |  |  |  | 
22 | NC(=O)c1ccc(-c2nc(-c3ccc4c(c3)OCO4)c(-c3ccccn3)[nH]2)cc1 [SB-431542-A] |  |  |  | 100 | 59 | 90 | 
23 | COc1ccc2cc(-c3c(-c4ccncc4)nc(-c4ccc([S+](C)[O-])cc4)n3C)ccc2c1 (stereo not drawn) [SB-437013] | 70 | 70 | 58 |  |  |  | 
24 | CN(C)CCOc1ccc(-c2nc(-c3ccncc3)c(-c3ccc4c(c3)CC/C4=N\O)[nH]2)cc1 [SB-590885-AAD] |  |  |  | 100 | 74 | 100 | 
25 | Cl.Oc1cccc(-c2nc(-c3ccccc3)[nH]c2-c2ccncc2)c1 [SB-610251-B] |  |  |  | 96 | 74 | 13 | 

Row | Compound | remaining activity at 100 µM (E. coli MurF) [%] | remaining activity at 100 µM (E. coli MurC; [1]) [%] | remaining activity at 100 µM (E. coli MurD) [%] | RA [%] at 100 µM MurF (E. coli MurF) [%] | RA [%] at 100 µM MurC (E. coli MurC; Table S1, PKIS screening) [%] | RA [%] at 100 µM MurD (E. coli MurD) | remaining activity at 100 µM (E. coli MurC; [2]) [%]
26 | COc1ccc2cc(-c3c(-c4ccncc4)nc(-c4ccc(S(C)(=O)=O)cc4C)n3C)ccc2c1 [SB-633825] | 56 | 36 | 69 |  |  |  | 
27 | CN1CCC(C(=O)Nc2n[nH]c3nnc(-c4ccccc4)cc23)CC1.Cl [SB-678557-A] |  |  |  | 95 | 74 | 76 | 
28 | CN(C)CCOc1ccc(-c2cc(-c3ccc4c(c3)CCC4=NO)c(-c3ccncc3)o2)cc1.Cl [SB-682330-A] |  |  |  | 57 | 31 | 51 | 
29 | O=C(Nc1n[nH]c2nc(-c3ccc(O)cc3)c(Br)cc12)C1CC1 [SB-725317] | 89 | 84 | 96 |  |  |  | 
30 | CN1CCC(C(=O)Nc2n[nH]c3nc(-c4ccc(O)cc4)c(Br)cc23)CC1 [SB-732881] | 90 | 71 | 84 |  |  |  | 
31 | O=C(Nc1n[nH]c2cc(-c3ccccc3)ccc12)C1CC1 [SB-732941] | 86 | 80 | 79 |  |  |  | 
32 | Nc1nonc1-c1nc2cnccc2n1C1CCCCC1 [SB-734117] | 93 | 100 | 79 |  |  |  | 
33 | O=C(Nc1n[nH]c2cc(-c3cc(F)ccc3F)ccc12)C1CC1 [SB-735465] | 82 | 59 | 80 |  |  |  | 
34 | O=C(Nc1n[nH]c2cc(-c3ccc(F)cc3)ccc12)C1CC1 [SB-735467] | 103 | 51 | 75 |  |  |  | 
35 | Nc1nonc1-c1nc2cnccc2n1C1CC1 [SB-736302] | 77 | 92 | 100 |  |  |  | 
36 | CCOc1nccc2c1nc(-c1nonc1N)n2CC [SB-737198] | 100 | 73 | 100 |  |  |  | 
37 | NS(=O)(=O)c1ccc(-c2ccc3c(NC(=O)C4CC4)n[nH]c3c2)cc1 [SB-738482] | 83 | 75 | 83 |  |  |  | 
38 | CCn1c(-c2nonc2N)nc2ccncc21 [SB-738561] | 100 | 78 | 58 |  |  |  | 
39 | O=C(Nc1n[nH]c2nc(-c3ccco3)c(Br)cc12)C1CC1 [SB-739452] | 87 | 78 | 84 |  |  |  | 
40 | NS(=O)(=O)c1cccc(-c2ccc3c(NC(=O)C4CC4)n[nH]c3c2)c1 [SB-741905] | 88 | 72 | 98 |  |  |  | 
41 | CS(=O)(=O)Nc1cccc(-c2ccc3c(NC(=O)C4CC4)n[nH]c3c2)c1 [SB-742864] | 99 | 64 | 88 |  |  |  | 
42 | CS(=O)(=O)Nc1ccc(-c2ccc3c(NC(=O)C4CC4)n[nH]c3c2)cc1 [SB-742865] | 92 | 63 | 80 |  |  |  | 
43 | O=C(Nc1n[nH]c2nc(-c3ccco3)ccc12)C1CC1 [SB-743899] | 91 | 84 | 89 |  |  |  | 
44 | CCc1nccc2c1nc(-c1nonc1N)n2CC [SB-751148] | 88 | 75 | 96 |  |  |  | 
45 | CCn1c(-c2nonc2N)nc2cncc(C(=O)N3CC[C@H](N)C3)c21 [SB-772077-B] |  |  |  | 80 | 77 | 90 | 
46 | Fc1ccc(-c2nc3n(c2-c2ccncc2)CCS3)cc1 [SKF-86002-A2] |  |  |  | 97 | 75 | 91 | 
47 | Fc1ccc(-c2c(-c3ccncc3)nc3n2CCS3)cc1 [SKF-86055] | 89 | 98 | 91 |  |  |  | 
48 | SB-675259-M |  |  |  | 100 | 72 | 80 | 
49 | SB-739245-AC |  |  |  | 95 | 61 | 99% | 
